According to ChEMBL document CHEMBL4304811, “Development of a Water-Soluble Indolylmaleimide Derivative IM-93 Showing Dual Inhibition of Ferroptosis and NETosis” (ACS Med Chem Lett, 2019):

How the values were obtained:
[1] = target: Serine/threonine-protein kinase MRCK beta (Homo sapiens) (UniProt Q9Y5S2); assay: Binding affinity to wild-type human partial length MRCKB (L56 to S417 residues) expressed in bacterial expression system assessed as residual binding level at 10 uM by Kinomescan method relative to control
[2] = target: Death-associated protein kinase 1 (Homo sapiens) (UniProt P53355); assay: Binding affinity to wild-type human partial length DAPK1 (M1 to F296 residues) expressed in bacterial expression system assessed as residual binding level at 10 uM by Kinomescan method relative to control
[3] = target: Myosin light chain kinase (Homo sapiens) (UniProt Q32MK0); assay: Binding affinity to wild-type human partial length MLCK (D488 to K800 residues) expressed in bacterial expression system assessed as residual binding level at 10 uM by Kinomescan method relative to control
Sequence of Myosin light chain kinase (Homo sapiens) (Q32MK0 whole entry, the tested form may be a part): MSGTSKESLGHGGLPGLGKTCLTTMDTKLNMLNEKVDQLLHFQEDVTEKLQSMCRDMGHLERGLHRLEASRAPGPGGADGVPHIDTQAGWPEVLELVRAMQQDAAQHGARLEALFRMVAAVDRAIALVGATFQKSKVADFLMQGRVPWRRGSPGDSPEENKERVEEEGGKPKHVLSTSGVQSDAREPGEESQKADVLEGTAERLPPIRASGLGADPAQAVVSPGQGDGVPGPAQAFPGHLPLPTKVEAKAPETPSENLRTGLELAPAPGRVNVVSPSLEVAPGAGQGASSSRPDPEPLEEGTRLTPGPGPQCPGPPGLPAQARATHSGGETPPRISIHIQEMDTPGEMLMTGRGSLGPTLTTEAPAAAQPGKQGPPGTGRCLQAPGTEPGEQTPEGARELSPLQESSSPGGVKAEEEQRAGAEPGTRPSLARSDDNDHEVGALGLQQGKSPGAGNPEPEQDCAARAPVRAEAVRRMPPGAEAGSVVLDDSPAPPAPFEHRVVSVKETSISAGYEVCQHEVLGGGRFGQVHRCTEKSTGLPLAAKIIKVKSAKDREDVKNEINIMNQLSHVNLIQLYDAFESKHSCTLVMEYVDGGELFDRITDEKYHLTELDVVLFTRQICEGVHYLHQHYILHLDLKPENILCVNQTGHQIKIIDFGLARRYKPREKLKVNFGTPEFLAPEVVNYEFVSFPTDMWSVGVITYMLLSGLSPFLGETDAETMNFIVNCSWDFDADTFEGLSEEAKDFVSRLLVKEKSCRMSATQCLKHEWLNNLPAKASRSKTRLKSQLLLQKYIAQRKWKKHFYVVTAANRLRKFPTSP

[4] = target: Cyclin-dependent kinase 9 (Homo sapiens) (UniProt P50750); assay: Binding affinity to wild-type human full length CDK9 (M1 to F372 residues) expressed in bacterial expression system assessed as residual binding level at 10 uM by Kinomescan method relative to control
[5] = target: MAP kinase-interacting serine/threonine-protein kinase 1 (Homo sapiens) (UniProt Q9BUB5); assay: Binding affinity to wild-type human full length MKNK1 (M1 to L424 residues) expressed in mammalian expression system assessed as residual binding level at 10 uM by Kinomescan method relative to control
[6] = target: Tyrosine-protein kinase FRK (Homo sapiens) (UniProt P42685); assay: Binding affinity to wild-type human partial length FRK (A215 to F503 residues) expressed in bacterial expression system assessed as residual binding level at 10 uM by Kinomescan method relative to control
[7] = target: Angiopoietin-1 receptor (Homo sapiens) (UniProt Q02763); assay: Binding affinity to wild-type human partial length TIE2 (N804 to T1112 residues) expressed in bacterial expression system assessed as residual binding level at 10 uM by Kinomescan method relative to control
[8] = target: Receptor-type tyrosine-protein kinase FLT3 (Homo sapiens) (UniProt P36888); assay: Binding affinity to wild-type human partial length autoinhibited FLT3 (H564 to Y969 residues) expressed in mammalian expression system assessed as residual binding level at 10 uM by Kinomescan method relative to control
[9] = target: Calcium/calmodulin-dependent protein kinase type 1D (Homo sapiens) (UniProt Q8IU85); assay: Binding affinity to wild-type human partial length CAMK1D (M1 to K299 residues) expressed in bacterial expression system assessed as residual binding level at 10 uM by Kinomescan method relative to control
Sequence of Calcium/calmodulin-dependent protein kinase type 1D (Homo sapiens) (Q8IU85 whole entry, looked up, the tested form may be a part): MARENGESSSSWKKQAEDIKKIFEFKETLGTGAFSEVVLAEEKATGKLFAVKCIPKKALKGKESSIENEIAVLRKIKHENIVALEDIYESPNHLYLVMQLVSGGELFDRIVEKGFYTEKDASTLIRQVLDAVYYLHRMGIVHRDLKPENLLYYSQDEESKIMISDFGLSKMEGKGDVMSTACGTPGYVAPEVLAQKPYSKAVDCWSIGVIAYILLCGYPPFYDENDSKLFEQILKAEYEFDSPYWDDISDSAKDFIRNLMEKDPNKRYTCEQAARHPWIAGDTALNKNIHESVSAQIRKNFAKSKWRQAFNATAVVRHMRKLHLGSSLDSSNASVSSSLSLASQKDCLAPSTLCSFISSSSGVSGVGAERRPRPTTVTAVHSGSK

[10] = target: Ephrin type-A receptor 4 (Homo sapiens) (UniProt P54764); assay: Binding affinity to wild-type human partial length EPHA4 (T601 to R897 residues) expressed in bacterial expression system assessed as residual binding level at 10 uM by Kinomescan method relative to control
Sequence of Ephrin type-A receptor 4 (Homo sapiens) (P54764 whole entry, the tested form may be a part): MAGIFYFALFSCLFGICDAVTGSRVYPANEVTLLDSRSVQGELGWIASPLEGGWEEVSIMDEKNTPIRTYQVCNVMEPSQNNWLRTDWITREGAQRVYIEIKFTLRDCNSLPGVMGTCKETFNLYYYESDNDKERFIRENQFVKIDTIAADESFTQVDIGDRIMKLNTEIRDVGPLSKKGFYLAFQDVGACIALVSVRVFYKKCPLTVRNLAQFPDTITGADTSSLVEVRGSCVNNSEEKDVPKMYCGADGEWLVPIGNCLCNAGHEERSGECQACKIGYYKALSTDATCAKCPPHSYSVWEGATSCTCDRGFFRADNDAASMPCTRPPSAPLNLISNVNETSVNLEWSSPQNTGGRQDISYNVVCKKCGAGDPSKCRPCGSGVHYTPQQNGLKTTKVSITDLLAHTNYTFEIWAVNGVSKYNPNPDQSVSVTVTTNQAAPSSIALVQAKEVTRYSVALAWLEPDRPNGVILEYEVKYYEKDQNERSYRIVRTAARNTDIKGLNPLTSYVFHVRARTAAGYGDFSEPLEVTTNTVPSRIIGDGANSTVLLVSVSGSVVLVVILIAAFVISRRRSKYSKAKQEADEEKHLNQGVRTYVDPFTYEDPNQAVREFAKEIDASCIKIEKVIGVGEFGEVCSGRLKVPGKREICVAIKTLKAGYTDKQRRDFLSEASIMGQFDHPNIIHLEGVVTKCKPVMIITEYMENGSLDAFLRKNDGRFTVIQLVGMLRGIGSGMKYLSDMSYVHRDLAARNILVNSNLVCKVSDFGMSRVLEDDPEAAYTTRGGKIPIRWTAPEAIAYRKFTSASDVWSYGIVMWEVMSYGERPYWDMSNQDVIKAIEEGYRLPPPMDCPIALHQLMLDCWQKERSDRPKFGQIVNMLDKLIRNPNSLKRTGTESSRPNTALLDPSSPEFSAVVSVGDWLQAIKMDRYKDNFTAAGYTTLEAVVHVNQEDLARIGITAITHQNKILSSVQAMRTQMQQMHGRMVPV

[11] = target: Serine/threonine-protein kinase Nek1 (Homo sapiens) (UniProt Q96PY6); assay: Binding affinity to wild-type human partial length NEK1 (M1 to K278 residues) expressed in bacterial expression system assessed as residual binding level at 10 uM by Kinomescan method relative to control
[12] = target: SRSF protein kinase 3 (Homo sapiens) (UniProt Q9UPE1); assay: Binding affinity to wild-type human partial length SRPK3 (P41 to P567 residues) expressed in bacterial expression system assessed as residual binding level at 10 uM by Kinomescan method relative to control
Sequence of SRSF protein kinase 3 (Homo sapiens) (Q9UPE1 whole entry, the tested form may be a part): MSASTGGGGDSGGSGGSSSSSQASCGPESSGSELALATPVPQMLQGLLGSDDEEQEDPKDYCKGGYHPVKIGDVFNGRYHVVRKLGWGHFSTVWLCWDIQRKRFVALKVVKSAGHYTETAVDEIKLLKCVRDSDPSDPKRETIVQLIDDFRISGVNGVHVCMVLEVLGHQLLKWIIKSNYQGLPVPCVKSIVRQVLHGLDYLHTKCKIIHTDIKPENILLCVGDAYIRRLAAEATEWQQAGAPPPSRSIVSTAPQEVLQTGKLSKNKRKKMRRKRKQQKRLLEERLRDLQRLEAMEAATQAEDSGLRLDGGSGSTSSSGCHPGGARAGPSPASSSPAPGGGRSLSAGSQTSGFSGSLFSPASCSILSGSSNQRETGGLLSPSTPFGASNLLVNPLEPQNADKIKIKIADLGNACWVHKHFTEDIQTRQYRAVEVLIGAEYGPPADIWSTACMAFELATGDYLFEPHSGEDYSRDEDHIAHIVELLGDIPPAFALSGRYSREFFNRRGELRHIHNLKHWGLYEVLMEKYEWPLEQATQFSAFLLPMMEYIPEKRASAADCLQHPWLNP

[13] = target: Wee1-like protein kinase (Homo sapiens) (UniProt P30291); assay: Binding affinity to wild-type human partial length WEE1 (M291 to K575 residues) expressed in bacterial expression system assessed as residual binding level at 10 uM by Kinomescan method relative to control
[14] = target: Serine/threonine-protein kinase LATS1 (Homo sapiens) (UniProt O95835); assay: Binding affinity to wild-type human partial length LATS1 (Q678 to V1130 residues) expressed in bacterial expression system assessed as residual binding level at 10 uM by Kinomescan method relative to control
[15] = target: Ephrin type-A receptor 1 (Homo sapiens) (UniProt P21709); assay: Binding affinity to wild-type human partial length EPHA1 (V588 to I913 residues) expressed in bacterial expression system assessed as residual binding level at 10 uM by Kinomescan method relative to control
Sequence of Ephrin type-A receptor 1 (Homo sapiens) (P21709 whole entry, the tested form may be a part): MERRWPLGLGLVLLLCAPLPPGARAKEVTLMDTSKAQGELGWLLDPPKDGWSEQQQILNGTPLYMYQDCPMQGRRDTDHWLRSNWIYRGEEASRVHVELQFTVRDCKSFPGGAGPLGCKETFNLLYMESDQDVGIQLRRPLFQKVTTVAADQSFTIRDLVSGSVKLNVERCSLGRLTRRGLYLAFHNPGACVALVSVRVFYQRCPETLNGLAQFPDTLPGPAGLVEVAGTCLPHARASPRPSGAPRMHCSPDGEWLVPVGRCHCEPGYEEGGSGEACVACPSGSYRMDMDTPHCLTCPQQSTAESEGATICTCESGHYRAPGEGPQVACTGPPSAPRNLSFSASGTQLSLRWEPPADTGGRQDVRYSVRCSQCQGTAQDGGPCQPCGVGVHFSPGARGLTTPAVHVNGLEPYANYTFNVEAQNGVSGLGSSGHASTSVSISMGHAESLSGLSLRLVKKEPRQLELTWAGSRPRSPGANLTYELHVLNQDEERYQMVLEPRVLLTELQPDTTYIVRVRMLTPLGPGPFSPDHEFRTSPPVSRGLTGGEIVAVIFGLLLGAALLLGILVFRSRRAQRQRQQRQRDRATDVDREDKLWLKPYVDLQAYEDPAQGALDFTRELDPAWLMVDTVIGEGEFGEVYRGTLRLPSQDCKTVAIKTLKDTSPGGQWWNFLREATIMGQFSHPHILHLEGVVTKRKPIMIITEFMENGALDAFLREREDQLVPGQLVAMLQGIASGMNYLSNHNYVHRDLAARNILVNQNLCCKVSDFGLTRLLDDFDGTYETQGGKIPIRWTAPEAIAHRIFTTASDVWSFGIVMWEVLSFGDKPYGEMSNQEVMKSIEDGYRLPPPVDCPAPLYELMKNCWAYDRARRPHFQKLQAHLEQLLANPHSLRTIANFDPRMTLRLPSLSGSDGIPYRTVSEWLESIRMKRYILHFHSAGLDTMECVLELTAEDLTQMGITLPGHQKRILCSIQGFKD

[16] = target: Serine/threonine-protein kinase 38 (Homo sapiens) (UniProt Q15208); assay: Binding affinity to wild-type human partial length NDR1 (N33 to E449 residues) expressed in mammalian expression system assessed as residual binding level at 10 uM by Kinomescan method relative to control
[17] = target: Activated CDC42 kinase 1 (Homo sapiens) (UniProt Q07912); assay: Binding affinity to wild-type human partial length TNK2 (S159 to D474 residues) expressed in bacterial expression system assessed as residual binding level at 10 uM by Kinomescan method relative to control
[18] = target: Tyrosine-protein kinase ITK/TSK (Homo sapiens) (UniProt Q08881); assay: Binding affinity to wild-type human partial length ITK (R335 to L620 residues) expressed in bacterial expression system assessed as residual binding level at 10 uM by Kinomescan method relative to control
[19] = target: Serine/threonine-protein kinase/endoribonuclease IRE1 (Homo sapiens) (UniProt O75460); assay: Binding affinity to wild-type human partial length ERN1 (S551 to E852 residues) expressed in mammalian expression system assessed as residual binding level at 10 uM by Kinomescan method relative to control
[20] = target: Serine/threonine-protein kinase MRCK alpha (Homo sapiens) (UniProt Q5VT25); assay: Binding affinity to wild-type human partial length MRCKA (L57 to V418 residues) expressed in bacterial expression system assessed as residual binding level at 10 uM by Kinomescan method relative to control
[21] = target: Calcium-dependent protein kinase 1 (Plasmodium falciparum) (UniProt P62344); assay: Binding affinity to wild-type Plasmodium falciparum full length CDPK1 (M1 to S524 residues) expressed in mammalian expression system assessed as residual binding level at 10 uM by Kinomescan method relative to control
[22] = target: Tyrosine-protein kinase SYK (Homo sapiens) (UniProt P43405); assay: Binding affinity to wild-type human partial length SYK (D354 to N635 residues) expressed in bacterial expression system assessed as residual binding level at 10 uM by Kinomescan method relative to control
[23] = target: Mast/stem cell growth factor receptor Kit (Homo sapiens) (UniProt P10721); assay: Binding affinity to wild-type human partial length KIT (I571 to D952 residues) expressed in bacterial expression system assessed as residual binding level at 10 uM by Kinomescan method relative to control
Sequence of Mast/stem cell growth factor receptor Kit (Homo sapiens) (P10721 whole entry, the tested form may be a part): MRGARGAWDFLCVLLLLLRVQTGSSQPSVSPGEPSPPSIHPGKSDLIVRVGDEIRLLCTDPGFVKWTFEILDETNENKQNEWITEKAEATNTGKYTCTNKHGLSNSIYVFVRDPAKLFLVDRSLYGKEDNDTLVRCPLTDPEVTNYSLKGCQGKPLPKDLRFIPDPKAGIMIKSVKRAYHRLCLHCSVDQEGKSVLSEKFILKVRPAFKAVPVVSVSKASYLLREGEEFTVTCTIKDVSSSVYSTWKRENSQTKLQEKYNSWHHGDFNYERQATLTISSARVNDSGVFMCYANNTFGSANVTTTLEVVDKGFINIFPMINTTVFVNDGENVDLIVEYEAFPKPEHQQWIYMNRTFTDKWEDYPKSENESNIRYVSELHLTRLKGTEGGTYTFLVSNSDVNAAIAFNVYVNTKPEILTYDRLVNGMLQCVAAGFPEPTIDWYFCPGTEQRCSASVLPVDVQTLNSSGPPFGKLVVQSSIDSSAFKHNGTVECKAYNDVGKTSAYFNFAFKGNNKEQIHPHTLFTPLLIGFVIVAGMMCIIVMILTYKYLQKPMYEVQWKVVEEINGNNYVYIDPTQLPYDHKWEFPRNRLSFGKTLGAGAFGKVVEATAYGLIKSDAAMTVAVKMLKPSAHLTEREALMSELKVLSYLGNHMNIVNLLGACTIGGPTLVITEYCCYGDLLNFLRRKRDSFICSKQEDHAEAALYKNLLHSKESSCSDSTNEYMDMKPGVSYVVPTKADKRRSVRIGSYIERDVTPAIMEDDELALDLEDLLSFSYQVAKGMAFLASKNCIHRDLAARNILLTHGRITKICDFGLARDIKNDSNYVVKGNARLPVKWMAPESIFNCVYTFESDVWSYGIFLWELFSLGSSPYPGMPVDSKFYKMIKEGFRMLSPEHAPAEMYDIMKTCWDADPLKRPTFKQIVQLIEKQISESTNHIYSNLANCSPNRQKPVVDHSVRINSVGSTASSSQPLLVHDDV

[24] = test system: Tyrosine-protein kinase ABL1 (Homo sapiens), P00519 [E255K]; assay: Binding affinity to human phosphorylated ABL1 E255K mutant (S229 to K512 residues) expressed in mammalian expression system assessed as residual binding level at 10 uM by Kinomescan method relative to control

Compound: CC(C)N1C(=O)C(NCCCN(C)C)=C(c2cn(C)c3ccccc23)C1=O.Cl
- Activity [1]: 85%
- Activity [2]: 100%
- Activity [3]: 89%
- Activity [4]: 100%
- Activity [5]: 100%
- Activity [6]: 100%
- Activity [7]: 93%
- Activity [8]: 88%
- Activity [9]: 83%
- Activity [10]: 100%
- Activity [11]: 100%
- Activity [12]: 100%
- Activity [13]: 100%
- Activity [14]: 96%
- Activity [15]: 85%
- Activity [16]: 93%
- Activity [17]: 100%
- Activity [18]: 100%
- Activity [19]: 85%
- Activity [20]: 98%
- Activity [21]: 81%
- Activity [22]: 82%
- Activity [23]: 99%
- Activity [24]: 89%
